Columns and labels:
Type in all cases: biochemical
QR1 (NQO1) [1] = target: T1, QR1 (NQO1) (Homo sapiens, UniProt P15559); test: Selectivity assay with QR1 in place of QR2, absorbance readout
T1 construct: purchased Sigma-Aldrich
Protocol: (§1) The enzymatic activity of QR2 (10 nM) was measured using menadione (both Sigma-Aldrich) as substrate and dihydrobenzylnicotamide (BNAH; Tocris) as co-substrate (Boutin et al., 2005). The reaction was performed in 50 mM Tris HCl, 150 mM NaCl 0.01% Tween-20 pH=8.5 (Sigma-Aldrich) at room temperature. Briefly, 3 μL of menadione alone (200 μM) or a mixture of menadione and QR2 (200 μM of menadione and 10 nM of QR2) were dispensed in 1536-well black Nunc plates (Thermo-Fisher) using a Multidrop™ Combi Reagent Dispenser (Thermo-Fisher) and pre-incubated with compounds for 10 min. BNAH (200 μM) was then added (3 μL) to the reaction using a BioNex Solutions BNX 1536 plate washer and the plates were incubated for another 10 min. […] The initial HTS was done with approximately 200,000 compounds at a single concentration of 5 μM. The chemical libraries used were Selleck Chemicals Bioactives, the Drug-like set from Enamine, HitFinder collection from Maybridge, Spectrum Collection from Microsource, Lopac from Sigma-Aldrich and the diversity sets from ChemDiv and ChemBridge. Initial “hit” compounds were defined as causing >30% reduction of enzyme activity. Compounds suspected to be fluorescent were re-assayed in an absorbance assay at 350 nm using the same reaction but in a higher volume (100 μL), in a transparent plate (Greiner Bio-One). “Hit” compounds resulting from both the fluorescence and absorbance assay were tested in a dose-response, and median inhibition concentration (IC50) values were determined. In parallel, the same dose response was used in a selectivity assay where QR2 enzyme was replaced by QR1 (also known as—NQO1, 10 nM; Sigma-Aldrich).
(§2) In order to establish a varied, flexible and chemically amenable starting point from which to develop such inhibitors, the inventors ran a standardized QR2 assay (see methods) against ˜200,000 compounds, from a varied assortment of chemical libraries. […] Compounds that replicated the initial hit result were then assayed similarly, against NQO1, to evaluate compound specificity (FIG. 1B). From the HTS, a series of compounds containing a sulfonamide central linker, with an amine on one side and a heterocycle on the other, were identified and selected for SAR development (FIG. 1C).

QR2 [2] = target: T2, QR2 (Homo sapiens, UniProt P16083); test: QR2 enzymatic activity assay (menadione/BNAH), absorbance readout at 350 nm; parameters: purchased Sigma-Aldrich
T2 sequence (P16083 1-231): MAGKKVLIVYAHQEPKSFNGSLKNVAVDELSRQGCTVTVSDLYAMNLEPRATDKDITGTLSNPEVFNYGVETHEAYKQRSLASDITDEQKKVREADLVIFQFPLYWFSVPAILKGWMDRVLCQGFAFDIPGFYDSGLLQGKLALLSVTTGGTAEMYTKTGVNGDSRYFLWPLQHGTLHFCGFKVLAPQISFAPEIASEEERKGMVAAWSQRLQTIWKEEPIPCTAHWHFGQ
Protocol: (§3) The enzymatic activity of QR2 (10 nM) was measured using menadione (both Sigma-Aldrich) as substrate and dihydrobenzylnicotamide (BNAH; Tocris) as co-substrate (Boutin et al., 2005). The reaction was performed in 50 mM Tris HCl, 150 mM NaCl 0.01% Tween-20 pH=8.5 (Sigma-Aldrich) at room temperature. Briefly, 3 μL of menadione alone (200 μM) or a mixture of menadione and QR2 (200 μM of menadione and 10 nM of QR2) were dispensed in 1536-well black Nunc plates (Thermo-Fisher) using a Multidrop™ Combi Reagent Dispenser (Thermo-Fisher) and pre-incubated with compounds for 10 min. BNAH (200 μM) was then added (3 μL) to the reaction using a BioNex Solutions BNX 1536 plate washer and the plates were incubated for another 10 min. […] The initial HTS was done with approximately 200,000 compounds at a single concentration of 5 μM. The chemical libraries used were Selleck Chemicals Bioactives, the Drug-like set from Enamine, HitFinder collection from Maybridge, Spectrum Collection from Microsource, Lopac from Sigma-Aldrich and the diversity sets from ChemDiv and ChemBridge. Initial “hit” compounds were defined as causing >30% reduction of enzyme activity. […] “Hit” compounds resulting from both the fluorescence and absorbance assay were tested in a dose-response, and median inhibition concentration (IC50) values were determined. In parallel, the same dose response was used in a selectivity assay where QR2 enzyme was replaced by QR1 (also known as—NQO1, 10 nM; Sigma-Aldrich).
(§4) In order to establish a varied, flexible and chemically amenable starting point from which to develop such inhibitors, the inventors ran a standardized QR2 assay (see methods) against ˜200,000 compounds, from a varied assortment of chemical libraries.

QR2 [3] = target: T2, QR2; test: QR2 enzymatic activity assay (menadione/BNAH), fluorescence readout; parameters: purchased Sigma-Aldrich
Protocol: as §3, §4

QR1 (NQO1) [4] = target: T1, QR1 (NQO1); test: Selectivity assay with QR1 in place of QR2, fluorescence readout
Protocol: as §1, §2

T1 sequence (P15559 whole entry): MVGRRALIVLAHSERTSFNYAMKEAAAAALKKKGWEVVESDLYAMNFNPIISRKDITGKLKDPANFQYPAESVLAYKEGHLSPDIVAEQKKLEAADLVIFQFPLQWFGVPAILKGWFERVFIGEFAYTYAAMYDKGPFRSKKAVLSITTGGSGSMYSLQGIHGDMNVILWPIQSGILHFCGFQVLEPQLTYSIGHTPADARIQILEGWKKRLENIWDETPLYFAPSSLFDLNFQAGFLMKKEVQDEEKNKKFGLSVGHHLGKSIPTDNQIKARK

SMILES	IC50 (QR1 (NQO1) [1]) [µM]	IC50 (QR2 [2]) [µM]	IC50 (QR2 [3]) [µM]	IC50 (QR1 (NQO1) [4]) [µM]
O=c1n(Cc2ccc(Cl)cc2)nc2ccc(S(=O)(=O)N3CCCCC3)cn12 [PCM-0140113]	> 9.99	> 9.99	> 9.9	> 9.9
CCc1noc(-c2c(S(=O)(=O)NCc3cccc(OC)c3)c(C)n(C)c2C)n1 [PCM-0200337]	> 9.99	8.09	> 9.9	> 9.9
CCOC(=O)c1c(S(=O)(=O)N(CCC(C)C)Cc2ccco2)c(C)n(C)c1C [PCM-0120203]	> 9.9	8.53	8.21	3.79
CS(=O)(=O)N(C1CC1)C1CCOC2(CCN(C(=O)C3(c4ccccc4)CC3)CC2)C1 (centres unmarked) [PCM-0207818]	> 9.99	> 9.99	> 9.9	> 9.9
COCC1CN(S(=O)(=O)Cc2ccccc2)CC12CCNCC2 (centres unmarked) [PCM-0109036]	> 9.99	> 9.99	> 9.9	> 9.9
COCCNC(=O)N1CCN(S(=O)(=O)c2c(C)c(C)c(C)c(C)c2C)CC1 [PCM-0072788]			> 9.8	> 9.8
Cc1nc(-c2ccc(C)c(S(=O)(=O)N(C)C)c2)cs1 [PCM-0213803]	> 9.99	0.1	2.8	> 9.99
Cc1c(C)c(C)c(S(=O)(=O)N2CCNC(=O)C2)c(C)c1C [PCM-0083647]			7.04	> 9.8
CCOC(=O)c1c(S(=O)(=O)N(CC)c2cccc(C)c2)c(C)n(C)c1C [PCM-0119438]	> 9.99	8.98	3.59	5.39
O=S(=O)(Nc1cccc(-c2cn3ccsc3n2)c1)c1ccc2c(c1)OCCO2 [PCM-0190999]	< 0.75	4.03	5.62	< 0.83
Cc1cccn2cc(-c3cccc(S(=O)(=O)Nc4ccc(Cl)cc4)c3)nc12 [PCM-0213788]	> 9.99	0.05	3.04	> 9.99
CCCN(CCC)S(=O)(=O)c1cccc(-c2cn3cccc(C)c3n2)c1 [PCM-0124772]	> 9.99	0.75	0.83	> 9.9
CS(=O)(=O)N(Cc1cccnc1)C1CN(C(=O)c2c[nH]c3ccccc23)C1 [PCM-0105406]	> 9.99	8.43	> 9.9	> 9.9
COc1ccc(S(=O)(=O)N2CCC(NC(=O)N3CCCC3)CC2)cc1 [PCM-0154188]	> 9.99	3.83	2.06	> 9.9
COc1cc(NS(C)(=O)=O)ccc1Cc1c2ccccc2nc2ccccc12 [PCM-0090313]			> 9.8	> 9.8
Cc1ccn2cc(-c3cccc(S(=O)(=O)N(C)C)c3)nc2c1 [PCM-0213801]	> 9.99			> 9.99

The remaining lines, values ahead:

IC50 (QR1 (NQO1) [1]) [µM]	IC50 (QR2 [2]) [µM]	IC50 (QR2 [3]) [µM]	IC50 (QR1 (NQO1) [4]) [µM]	SMILES
> 9.99	1.17	6.49	> 9.99	Cc1ccc(-c2nnc(-c3ccccc3)o2)cc1S(=O)(=O)NCc1cccnc1 [PCM-0213813]
> 9.99	0.25	1.48	> 9.99	Cc1ccc(-c2nnc(-c3ccccc3)o2)cc1S(=O)(=O)N1CCCC1 [PCM-0213805]
3.48	> 9.99	> 9.9	4.7	CC(=O)N1CCOc2ccc(S(=O)(=O)N3CCCc4ccccc43)cc21 [PCM-0119249]
> 9.99	1.16	2.36	> 9.99	Cc1cc(-c2ccc(C)c(S(=O)(=O)Nc3ccc(Cl)cc3)c2)[nH]n1 [PCM-0186036]
> 9.99	1.28	4.65	> 9.99	Cc1nc(-c2ccc(C)c(S(=O)(=O)N3CCN(C(=O)c4ccco4)CC3)c2)cs1 [PCM-0197066]
> 9.99	1.62	2.2	> 9.99	Cc1ccc(-c2nnc(-c3ccccc3)o2)cc1S(=O)(=O)N(C)C [PCM-0127506]
3.44	0.32	0.7	5.28	Cc1ccn2cc(-c3cccc(S(=O)(=O)NCCCN4CCCC4=O)c3)nc2c1 [PCM-0213817]
> 9.99	0.28	0.93	> 9.99	Cc1cc(-c2ccc(C)c(S(=O)(=O)NCCCN3CCCC3=O)c2)n[nH]1 [PCM-0213815]
		0.425	> 9.99	Cc1ccc(-c2cn3cccc(C)c3n2)cc1S(=O)(=O)N1CCN(C)CC1 [YB-540]
> 9.99	0.41	1.27	> 9.99	Cc1ccn2cc(-c3cccc(S(=O)(=O)N4CCCCCC4)c3)nc2c1 [PCM-0213798]
> 9.99	3.2	4.16	> 9.9	CCOC(=O)C1CCN(S(=O)(=O)c2cc(-c3csc(C)n3)ccc2C)CC1 [PCM-0197024]
> 9.99	0.18	0.51	> 9.99	Cc1ccn2cc(-c3ccc(C)c(S(=O)(=O)N4CCCC4)c3)nc2c1 [PCM-0213809]
> 9.99	0.37	1.55	> 9.99	Cc1nc(-c2ccc(C)c(S(=O)(=O)N3CCCC3)c2)cs1 [PCM-0213807]
> 9.99	0.05	0.17	> 9.99	Cc1cc(-c2ccc(C)c(S(=O)(=O)N3CCCC3)c2)n[nH]1 [PCM-0213806]
> 9.99	3.12	4.82	> 9.9	CCN(CC)S(=O)(=O)c1cc(-c2nnc(-c3ccccc3)o2)ccc1C [PCM-0127546]
> 9.99	> 9.99	< 0.83	< 0.83	N#Cc1nc(-c2ccc(S(=O)(=O)N3CCCC3)cc2)oc1NCCCN1CCOCC1 [PCM-0172736]
> 9.99	0.08	0.26	> 9.99	Cc1cc(-c2ccc(C)c(S(=O)(=O)N3CCN(C(=O)c4ccco4)CC3)c2)n[nH]1 [PCM-0213791]
> 9.99	> 9.99	> 9.9	> 9.9	CNC(=O)N1CCc2cc(S(=O)(=O)N3CCc4ccccc43)ccc21 [PCM-0181527]
> 9.99	> 9.99	> 9.9	> 9.9	CCOC(=O)c1c(S(=O)(=O)N2CCN(Cc3ccccc3)CC2)c(C)n(C)c1C [PCM-0119478]
> 9.99	1.2	5.97	> 9.99	Cc1ccc(-c2nnc(-c3ccccc3)o2)cc1S(=O)(=O)N1CCC(C)CC1 [PCM-0127586]
> 9.99	1.22	2.18	> 9.9	Cc1ccn2cc(-c3cccc(S(=O)(=O)N4CC(C)CC(C)C4)c3)nc2c1 (centres unmarked) [PCM-0124575]
		> 9.8	> 9.8	CN(C)S(=O)(=O)c1cccc2ccccc12 [PCM-0071569]

— patent publication US20240228481A1, “NOVEL SULFONAMIDE SERIES OF QR2 INHIBITORS TO TACKLE OXIDATIVE STRESS AND COGNITIVE DECLINE” (CARMEL HAIFA UNIVERSITY ECONOMIC CORPORATION LTD., priority 2021, published 2024)
